# From US20050032187A1, “Novel peptide-forming enzyme, microbe producing the enzyme and method for producing peptide using them” (Ajinomoto Co., Inc., priority 2003, published 2005)
# Residues, ends and D or L forms follow the SMILES beside them.
# System: Empedobacter brevis strain FERM BP-8113 microbial cells
# Test: Production of peptide using microbial cells of Empedobacter brevis
# Assay type: cell-based
# Details: 1 mL of 100 g/L cell suspension + 1 mL buffer with 200 mM carboxy component (HCl salt) and 400 mM amino acid, 10 mM EDTA, pH 9.0, 18° C., 2 hours
# Procedure: Although the following provides a more detailed explanation of the present invention through its examples, the present invention is not limited to these examples. In addition to confirmation by ninhydrin coloring of thin-film chromatograms (qualitative), quantitative determinations were made by the following high-performance liquid chromatography in order to assay products. Column: […] ODS-2 (manufactured by GL Science, Inc.), eluate: aqueous phosphate solution containing 5.0 mM sodium 1-octanesulfonate (pH 2.1): methanol=100: 15 to 50, flow rate: 1.0 mL/min, detection: 210 nanometers (hereinafter, “nm”). A 50 mL medium (pH 6.2) containing 5 grams (hereinafter, “g”) of glucose, 5 g of ammonium sulfate, 1 g of monopotassium phosphate, 3 g of dipotassium phosphate, 0.5 g of magnesium sulfate, 10 g of yeast extract and 10 g of peptone in 1 liter (hereinafter, “L”) was transferred to a 500 mL Sakaguchi flask and sterilized at 115° C. for 15 minutes. This medium was then inoculated with one loopful of the culture broth of Empedobacter brevis strain FERM BP-8113 (Depositary institution: National Institute for Advanced Industrial Science and Technology, International Patent Organism Depositary, Address of depositary institution: Chuo Dai-6,1-1 Higashi 1-Chome, Tsukuba-shi, Ibaraki-ken, Japan, International deposit transfer date: Jul. 8, 2002) that had been cultured at 30° C. for 16 hours in the same medium, followed by shake culturing at 30° C. for 16 hours and 120 strokes/min.
row,Molecule,Formed peptide [mM]
1,NCC(=O)N[C@@H](Cc1cnc[nH]1)C(=O)O [Gly-L-His] (H-Gly-His-OH),22.1
2,C[C@H](N)C(=O)N[C@@H](CCCN=C(N)N)C(=O)O [L-Ala-L-Arg] (H-Ala-Arg-OH),72.1
3,"C[C@H](N)C(=O)N[C@@H](CCC(N)=O)C(=O)O [L-Ala-L-Gln, L-alanyl-L-glutamine] (H-Ala-Gln-OH)",68.0
4,C[C@H](N)C(=O)N[C@@H](Cc1cnc[nH]1)C(=O)O [L-Ala-L-His] (H-Ala-His-OH),52.1
5,CC(C)C[C@H](NC(=O)[C@H](C)N)C(=O)O [L-Ala-L-Leu] (H-Ala-Leu-OH),38.2
6,CSCC[C@H](NC(=O)[C@H](C)N)C(=O)O [L-Ala-L-Met] (H-Ala-Met-OH),68.3
7,C[C@H](N)C(=O)N[C@@H](Cc1ccccc1)C(=O)O [L-Ala-L-Phe],62.4
8,C[C@H](N)C(=O)N[C@@H](CO)C(=O)O [L-Ala-L-Ser] (H-Ala-Ser-OH),51.3
9,CC[C@H](C)[C@H](N)C(=O)N[C@@H](CCSC)C(=O)O [L-Ile-L-Met] (H-Ile-Met-OH),8.3
10,CSCC[C@H](N)C(=O)N[C@@H](Cc1ccccc1)C(=O)O [L-Met-L-Phe] (H-Met-Phe-OH),28.5
11,N[C@@H](CO)C(=O)N[C@@H](CO)C(=O)O [L-Ser-L-Ser] (H-Ser-Ser-OH),29.0
12,CC(C)C[C@H](NC(=O)[C@@H](N)[C@@H](C)O)C(=O)O [L-Thr-L-Leu] (H-Thr-Leu-OH),23.0
13,CSCC[C@H](NC(=O)[C@@H](N)C(C)C)C(=O)O [L-Val-L-Met] (H-Val-Met-OH),10.5

# System: Sphingobacterium sp. strain FERM BP-8124 microbial cells
# Test: Production of L-alanyl-L-glutamine using microbial cells of Sphingobacterium sp.
# Assay type: cell-based
# Details: 0.1 mL of 100 g/L cell suspension + 0.1 mL buffer with 200 mM L-alanyl methyl ester hydrochloride and 400 mM L-glutamine, pH 9.0, 25° C., 120 minutes
# Procedure: A 50 ml medium (pH 7.0) containing 5 g of glucose, 5 g of ammonium sulfate, 1 g of monopotassium phosphate, 3 g of dipotassium phosphate, 0.5 g of magnesium sulfate, 10 g of yeast extract and 10 g of peptone in 1 L was transferred to a 500 mL Sakaguchi flask and sterilized at 115° C. for 15 minutes for culturing Sphingobacterium sp. strain FERM BP-8124 (Depositary institution: National Institute for Advanced Industrial Science and Technology, International Patent Organism Depositary, Address of depositary institution: Chuo Dai-6,1-1 Higashi 1-Chome, Tsukuba-shi, Ibaraki-ken, Japan, International deposit date: Jul. 22, 2002). This medium was then inoculated with one loopful of Sphingobacterium sp. strain FERM BP-8124 (Depositary institution: National Institute for Advanced Industrial Science and Technology, International Patent Organism Depositary, Address of depositary institution: Chuo Dai-6,1-1 Higashi 1-Chome, Tsukuba-shi, Ibaraki-ken, Japan, International deposit date: Jul. 22, 2002) cultured at 30° C. for 24 hours in a slant agar medium (agar: 20 g/L, pH 7.0) containing 5 g of glucose, 10 g of yeast extract, 10 g of peptone and 5 g of NaCl in 1 L, followed by shake culturing at 30° C. for 20 hours and 120 strokes/minute. A 1 ml aliquot of this culture broth was then added to the aforementioned medium (50 ml/500 mL Sakaguchi flask) and cultured at 30° C. for 18 hours. […]
row,Molecule,amount of L-alanyl-L-glutamine produced [mM]
1,"C[C@H](N)C(=O)N[C@@H](CCC(N)=O)C(=O)O [L-Ala-L-Gln, L-alanyl-L-glutamine] (H-Ala-Gln-OH)",62

# System: not listed separately
# Test: Comparison of ability to catalyze peptide production with known enzymes
# Details: 100 mM L-alanine methyl ester, 200 mM L-glutamine, pH 9.0, 25° C.; amount of enzyme added as in Table 14
# Procedure: The peptide formation ability of the present enzyme was compared with that of known enzymes. Carboxypeptidase Y described in EP 278787A1 and the thiol endopeptidases (ficin, papain, bromelain and chymopapain) described in EP 359399B1 were used for the known enzymes, and they were used in the form of purified enzymes manufactured by Sigma. […] The reaction was carried out by adding enzyme to 100 μl of borate buffer (pH 9.0) containing 100 mM L-alanine methyl ester and 200 mM L-glutamine and allowing to react at 25° C.
# Furthermore, enzyme dissolved in 10 mM acetate buffer (pH 5.0) containing 1 mM EDTA was used for the carboxypeptidase, while enzyme dissolved in 10 mM acetate buffer (pH 5.0) containing 2 mM EDTA, 0.1 M KCl and 5 mM dithiothreitol was used for the thiol endopeptidase.
row,Molecule,L-Ala-L-Gln production rate (mM/mm)
1,Bromelain,0.0062
2,"Chymopapain: thiol endopeptidase described in EP 359399B1, purified enzyme manufactured by Sigma",0.0100
3,Ficin,0.0096
4,"Papain: thiol endopeptidase described in EP 359399B1, purified enzyme manufactured by Sigma (protein, UniProt P00784 134-345, looked up) Papain: IPEYVDWRQKGAVTPVKNQGSCGSCWAFSAVVTIEGIIKIRTGNLNEYSEQELLDCDRRSYGCNGGYPWSALQLVAQYGIHYRNTYPYEGVQRYCRSREKGPYAAKTDGVRQVQPYNEGALLYSIANQPVSVVLEAAGKDFQLYRGGIFVGPCGNKVDHAVAAVGYGPNYILIKNSWGTGWGENGYIRIKRGTGNSYGVCGLYTSSFYPVKN",0.0106
5,"Carboxypeptidase Y: known enzyme described in EP 278787A1, purified enzyme manufactured by Sigma (protein, UniProt P00729 112-532, looked up) Carboxypeptidase Y: KIKDPKILGIDPNVTQYTGYLDVEDEDKHFFFWTFESRNDPAKDPVILWLNGGPGCSSLTGLFFELGPSSIGPDLKPIGNPYSWNSNATVIFLDQPVNVGFSYSGSSGVSNTVAAGKDVYNFLELFFDQFPEYVNKGQDFHIAGESYAGHYIPVFASEILSHKDRNFNLTSVLIGNGLTDPLTQYNYYEPMACGEGGEPSVLPSEECSAMEDSLERCLGLIESCYDSQSVWSCVPATIYCNNAQLAPYQRTGRNVYDIRKDCEGGNLCYPTLQDIDDYLNQDYVKEAVGAEVDHYESCNFDINRNFLFAGDWMKPYHTAVTDLLNQDLPILVYAGDKDFICNWLGNKAWTDVLPWKYDEEFASQKVRNWTASITDEVAGEVKSYKHFTYLRVFNGGHMVPFDVPENALSMVNEWIHGGFSL",0.0257

# System: enzyme (SP-Sepharose HP fraction) derived from Sphingobacterium sp. strain FERM BP-8124
# Test: not given
# Assay type: biochemical
# Details: Table 15-2; carboxy 100 mM, L-Gln 150 mM, 0.33 units, pH 9.0, 25° C., 1.5 hours; 0.1% Tween-80 with L-Tyr-OMe
# Procedure: The following procedure after centrifugal separation was carried out either on ice or at 4° C. Sphingobacterium sp. strain FERM BP-8124 (Depositary institution: National Institute for Advanced Industrial Science and Technology, International Patent Organism Depositary, Address of depositary institution: Chuo Dai-6,1-1 Higashi 1-Chome, Tsukuba-shi, Ibaraki-ken, Japan, International deposit date: Jul. 22, 2002) was cultured in the same manner as Example 21, and the microbial cells were collected by centrifugal separation (10,000 rpm, 15 minutes). After washing 2 g of microbial cells with 20 mM Tris-HCl buffer (pH 7.6), they were suspended in 8 ml of the same buffer and subjected to ultrasonic crushing treatment for 45 minutes at 195 W. This ultrasonic crushing liquid was then centrifuged (10,000 rpm, 30 minutes) to remove the crushed cell fragments and obtain an ultrasonic crushing liquid supernatant. This ultrasonic crushing liquid supernatant was dialyzed overnight against 20 mM Tris-HCl buffer (pH 7.6) followed by removal of the insoluble fraction by ultracentrifugation (50,000 rpm, 30 minutes) to obtain a soluble fraction in the form of the supernatant liquid. The resulting soluble fraction was applied to a Q-Sepharose HP column (manufactured by Amersham) pre-equilibrated with Tris-HCl buffer (pH 7.6), and the active fraction was collected from the non-adsorbed fraction. This active fraction was dialyzed overnight against 20 mM acetate buffer (pH 5.0) followed by removal of the insoluble fraction by centrifugal separation (10,000 rpm, 30 minutes) to obtain a dialyzed fraction in the form of the supernatant liquid. This dialyzed fraction was then applied to an SP-Sepharose HP column (manufactured by Amersham) pre-equilibrated with 20 mM acetate buffer (pH 5.0) to obtain the active fraction in which enzyme was eluted at a linear concentration gradient of the same buffer containing 0 tol M NaCl.
# Substrate specificity was examined for enzyme derived from Sphingobacterium sp. strain FERM BP-8124 (Depositary institution: National Institute for Advanced Industrial Science and Technology, International Patent Organism Depositary, Address of depositary institution: Central. 6, 1-1-1 Higashi, Tsukuba City, Ibaraki Prefecture, Japan, International deposit date: Jul. 22, 2002). 100 μl of 100 mM borate buffer (pH 9.0) containing the various carboxy components at a final concentration of 100 mM and the various amine components at a final concentration of 150 mM shown in Tables 15-1 to 15-4, the SP-Sepharose HP fraction enzyme purified in Example 22 (addition of 0.33 units in the reaction liquid) and 10 mM EDTA were allowed to react at 25° C. for 1.5 hours.
# In addition, hydrochlorides were used for all carboxy components. […]
row,Molecule,Produced peptide [mM]
1,NCC(=O)N[C@@H](CCC(N)=O)C(=O)O [Gly-L-Gln] (H-Gly-Gln-OH),61.1
2,NC(=O)CC[C@H](NC(=O)[C@@H](N)CCCN=C(N)N)C(=O)O [L-Arg-L-Gln] (H-Arg-Gln-OH),17.2
3,NC(=O)CC[C@H](NC(=O)[C@@H](N)CCC(N)=O)C(=O)O [L-Gln-L-Gln] (H-Gln-Gln-OH),0.1
4,CC[C@H](C)[C@H](N)C(=O)N[C@@H](CCC(N)=O)C(=O)O [L-Ile-L-Gln] (H-Ile-Gln-OH),6.4
5,CSCC[C@H](N)C(=O)N[C@@H](CCC(N)=O)C(=O)O [L-Met-L-Gln] (H-Met-Gln-OH),32.6
6,NC(=O)CC[C@H](NC(=O)[C@@H](N)Cc1ccccc1)C(=O)O [L-Phe-L-Gln],0.8
7,NC(=O)CC[C@H](NC(=O)[C@@H]1CCCN1)C(=O)O [L-Pro-L-Gln] (H-Pro-Gln-OH),1.8
8,NC(=O)CC[C@H](NC(=O)[C@@H](N)CO)C(=O)O [L-Ser-L-Gln] (H-Ser-Gln-OH),12.9
9,C[C@@H](O)[C@H](N)C(=O)N[C@@H](CCC(N)=O)C(=O)O [L-Thr-L-Gln] (H-Thr-Gln-OH),36.1
10,NC(=O)CC[C@H](NC(=O)[C@@H](N)Cc1ccc(O)cc1)C(=O)O [L-Tyr-L-Gln] (H-Tyr-Gln-OH),0.6
11,CC(C)[C@H](N)C(=O)N[C@@H](CCC(N)=O)C(=O)O [L-Val-L-Gln] (H-Val-Gln-OH),8.2
12,NC(=O)CC[C@H](NC(=O)[C@@H](N)CC(=O)O)C(=O)O [α-L-Asp-L-Gln] (H-Asp-Gln-OH),0.05
